Measured values taken from patent US11202773B2, “Locally bioavailable drugs” (UNIVERSITY OF HOUSTON SYSTEM, priority 2015, dated 2021).

Columns and labels:
human liver microsomes = experiment: Glucuronidation by human liver microsomes; assay type: in vitro ADME
Procedure: (§1) FIG. 5D is a bar graph illustrating in vitro metabolism of phenolics. Glucuronidation rates of 6a1-6a4 by human liver and intestinal microsomes. Additional metabolic rates of various locally bioavailable COX-2 inhibitors are in Table 4. […]. The incubation systems were: for glucuronidation, 0.88 mM magnesium chloride (MgCl2), 4.4 mM saccharolactone, 0.022 mg/mL alamethicin, 3.5 mM uridine 5′-diphospho-glucuronic acid (UDPGA), 10 μM substrates and different concentrations of microsomes in 50 mM potassium phosphate buffer (pH 7.4); for sulfation, 10 mM dithiothreitol (DTT), 5 mM MgCl2, 100 μM 3′-phosphoadenosine-5′-phosphosulfate (PAPS),10 μM substrate and different concentrations of S9 fractions in 50 mM potassium phosphate buffer (pH 7.4).
(§2) In vitro tools were employed to help predict the in vivo metabolism rates of the COX-2 inhibitors that are phenolics. The microsomes and S9 fractions prepared from colon or liver were used to determine the in vivo glucuronidation and sulfation rates of the phenolic compounds, respectively. By employing microsomes and S9 fractions prepared from both rats and humans, it could be determined if the results obtained in the rat model could be reasonably extrapolated to humans. In these experiments, raloxifene and genistein, two phenolic compounds which undergo extensive first-pass metabolism, were selected as controls.

recombinant human COX-1 = recombinant human COX-1 (Homo sapiens, UniProt P23219); experiment: In vitro enzyme assay, recombinant human COX-1; assay type: biochemical; settings: read-out: IC50 against recombinant human COX-1
recombinant human COX-1, sequence (P23219 24-599): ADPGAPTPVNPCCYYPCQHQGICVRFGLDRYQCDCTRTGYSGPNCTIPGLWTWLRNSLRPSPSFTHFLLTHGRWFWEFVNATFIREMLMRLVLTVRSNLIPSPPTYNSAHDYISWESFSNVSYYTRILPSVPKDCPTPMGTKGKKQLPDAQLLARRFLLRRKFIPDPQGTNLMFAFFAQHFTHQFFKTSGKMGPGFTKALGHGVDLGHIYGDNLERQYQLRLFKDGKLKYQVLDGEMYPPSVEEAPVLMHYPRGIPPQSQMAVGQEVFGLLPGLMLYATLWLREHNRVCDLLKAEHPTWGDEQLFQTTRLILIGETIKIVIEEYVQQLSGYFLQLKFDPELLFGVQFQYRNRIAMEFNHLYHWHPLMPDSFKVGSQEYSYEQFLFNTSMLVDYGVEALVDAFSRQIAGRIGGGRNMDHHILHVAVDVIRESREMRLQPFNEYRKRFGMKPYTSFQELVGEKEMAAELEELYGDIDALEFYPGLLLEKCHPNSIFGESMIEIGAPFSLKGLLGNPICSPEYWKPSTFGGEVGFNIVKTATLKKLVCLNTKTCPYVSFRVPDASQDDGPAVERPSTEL

rat liver microsomes = experiment: Glucuronidation by rat liver microsomes; assay type: in vitro ADME
Procedure: as §1, with “FIG. 5A” for “FIG. 5D”, “of phenolics via glucuronidation pathway.” for “of phenolics.”, “of all the new locally bioavailable COX-2 inhibitors” for “of 6a1-6a4”, “by rat” for “by human”, “liver” for “liver and intestinal”, “Table 3.” for “Table 4.”
as §2

mouse COX-2 = molecular target: T1, mouse COX-2 (Mus musculus, UniProt Q05769); experiment: COX-2 activity (PGD2/PGE2 production) in LPS-induced Raw264.7 cells; assay type: cell-based; settings: for IC50: 0.1 μg/mL LPS, 14 hours co-incubation; for PGD2 production, % of control / PGD2 production by Raw264.7 cells: LPS, 14 hours; for PGD2 production by Raw264.7 cells: 1 μM compound, result in words
T1 construct: Raw264.7 is a mouse macrophage cell line which expresses a high level of COX-2 protein upon lipopolysaccharide (LPS) induction; endogenous in cells; host or cells: Raw264.7 (LPS-induced)
T1 sequence (Q05769 18-604): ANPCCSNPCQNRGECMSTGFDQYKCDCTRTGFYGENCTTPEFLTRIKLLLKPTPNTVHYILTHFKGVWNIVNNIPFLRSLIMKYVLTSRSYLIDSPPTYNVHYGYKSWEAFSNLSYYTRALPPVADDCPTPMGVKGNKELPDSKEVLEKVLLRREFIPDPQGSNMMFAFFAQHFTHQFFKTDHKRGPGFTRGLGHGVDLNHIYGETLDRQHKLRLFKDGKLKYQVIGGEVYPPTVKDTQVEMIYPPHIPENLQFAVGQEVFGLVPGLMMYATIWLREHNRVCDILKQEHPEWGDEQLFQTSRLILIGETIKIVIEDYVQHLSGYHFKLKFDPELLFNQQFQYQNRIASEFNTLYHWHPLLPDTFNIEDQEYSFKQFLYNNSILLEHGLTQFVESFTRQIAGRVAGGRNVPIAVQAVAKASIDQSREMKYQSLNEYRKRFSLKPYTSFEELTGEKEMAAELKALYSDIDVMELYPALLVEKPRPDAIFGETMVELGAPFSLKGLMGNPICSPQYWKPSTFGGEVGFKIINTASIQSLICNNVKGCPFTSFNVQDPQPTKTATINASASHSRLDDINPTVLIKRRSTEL
Procedure: First, the inhibitory effects of the new synthesized compounds on COX-2 were assayed in two cell lines: Raw264.7 cells and HCA-7 cells. Raw264.7 is a mouse macrophage cell line which expresses a high level of COX-2 protein upon lipopolysaccharide (LPS) induction. […] The concentration of prostaglandins (both PGD2 and PGE2) accumulated in the cell culture medium can be employed as an indicator of COX-2 activity. HCA-7 is a human colon cancer cell line in which COX-2 protein is constitutively expressed. Briefly, the cells were pre-incubated with different concentrations of the new compounds for 30 min, and then 10 μM A23187 (a calcium ionophore) was added to release membrane-bound arachidonic acid (the natural substrate of COX-2) to the cytosolic domain. The system was incubated for another 30 minutes and PGE2 concentrations in the culture medium were determined. In both cell lines, higher PGD2/PGE2 concentrations in the media meant more COX-2 activity.

Raw264.7 cells = experiment: Metabolism of the phenolics by Raw264.7 cells; assay type: in vitro ADME, mouse; settings: 1 μM compound, 14 hours
Procedure: FIG. 4A is a bar graph illustration of the metabolism of the phenolics by Raw264.7 cells. Raw264.7 cells were incubated with 0.1 μg/mL LPS and 1 μM 6a1, 6a2 or 6a3, respectively. 14 hours later the concentrations of PGD2, the phenolics (i.e., aglycones, solid bars), and their phase II metabolites (open bars for glucuronides and shade bars for sulfates) were determined in the medium. Less PGD2 production means inhibition of COX-2 enzyme.
Glucuronidation of 6a1 in Raw264.7 cells was not influenced by LPS (FIG. 4B). […] The results of these experiments initially indicate that when characterizing inhibitory effects of the phenolics on COX-2, the importance of metabolic stability should be brought into consideration. This could be why phenolics were not considered to be active against COX-2 in many published reports using cellular COX-2 assays.

rat colon microsomes = experiment: Glucuronidation by rat colon microsomes; assay type: in vitro ADME
Procedure: FIG. 5B is a bar graph illustrating in vitro glucuronidation of phenolics in liver and colon microsomes of rats. Glucuronidation rates of 6a1-6a4 by rat liver and colon microsomes were measured. Additional metabolic rates of various locally bioavailable COX-2 inhibitors are in Table 3. […]. The incubation systems were: for glucuronidation, 0.88 mM magnesium chloride (MgCl2), 4.4 mM saccharolactone, 0.022 mg/mL alamethicin, 3.5 mM uridine 5′-diphospho-glucuronic acid (UDPGA), 10 μM substrates and different concentrations of microsomes in 50 mM potassium phosphate buffer (pH 7.4); for sulfation, 10 mM dithiothreitol (DTT), 5 mM MgCl2, 100 μM 3′-phosphoadenosine-5′-phosphosulfate (PAPS), 10 μM substrate and different concentrations of S9 fractions in 50 mM potassium phosphate buffer (pH 7.4).
as §2

[1] = test system: human intestine microsomes; experiment: Glucuronidation by human intestine microsomes; assay type: in vitro ADME
Procedure: as §1, §2

Structure (SMILES) | Glucuronidation rates by liver microsomes (Mean) (human liver microsomes) [pmol/mg/min] | IC50 (recombinant human COX-1) [µM] | Glucuronidation by rat liver microsomes (FIG. 5A) (rat liver microsomes) | Glucuronidation rates by liver microsomes (Mean) (rat liver microsomes) [pmol/mg/min] | IC50 (mouse COX-2) [µM] | PGD2 production, % of control (mouse COX-2; 1 μM 6a1, with glucuronidase (200 units/mL)) | PGD2 production, % of control (mouse COX-2; 1 μM 6a1, without glucuronidase) | PGD2 production by Raw264.7 cells (mouse COX-2) | Form recovered in medium at the end of incubation (Raw264.7 cells) | Glucuronidation rates by colon microsomes (Mean) (rat colon microsomes) [pmol/mg/min] | Glucuronidation rates by intestine microsomes (Mean) [1] [pmol/mg/min]
Cc1ccc(-c2cc(COc3ccccc3O)nn2-c2ccc(S(N)(=O)=O)cc2)cc1 [Compound 6a1] | 11576 | 5.13 | rapidly glucuronidated | 6299 | 1.39 ± 0.384 | 24.3 % of control | 67.5 % of control | only slightly reduced | recovered exclusively as their glucuronides | 1111 | 2786
Cc1ccc(-c2cc(COc3cccc(O)c3)nn2-c2ccc(S(N)(=O)=O)cc2)cc1 [Compound 6a2] | 1512 | 27.2 | rapidly glucuronidated | 3570 | 4.62 ± 1.34 | – | – | only slightly reduced | recovered exclusively as their glucuronides | 1199 | 924
Cc1ccc(-c2cc(COc3ccc(O)cc3)nn2-c2ccc(S(N)(=O)=O)cc2)cc1 [Compound 6a3] | 60 | 38.2 | – | 590 | 0.019 ± 0.002 | – | – | thoroughly inhibited | stayed as aglycone | 301 | 45
